From patent US20150139950A1, “ALISPORIVIR TO TREAT HEPATITIS C VIRUS INFECTION” (Novartis AG, priority 2011, published 2015)

System: Hepatitis C virus genotype 1
Test: Clinical study of alisporivir/peg-IFNα2a/ribavirin in treatment naïve chronic HCV genotype 1 patients, by IL28B genotype
Format: in vivo, human
Text: An international, multicentre, randomised, double-blind, placebo-controlled, 4-arm parallel-group multiple dose study comparing three alisporivir/peg-IFNα2a/ribavirin regimens to standard of care treatment in 272 treatment naïve chronic HCV genotype 1 patients is provided.
Patients are randomized into one of 3 treatment arms (A, B and C) as described below in a 1:1:1 ratio. The randomization is stratified by baseline HCV RNA (HCV RNA<800000 IU/mL or HCV RNA≧800000 IU/mL) and BMI (BMI<25 kg/m2 or BMI≧25 kg/m2) at screening.
Alisporivir: 3 capsules of 200 mg (600 mg) alisporivir 2×/day orally for 1 week followed by 3 capsules of 200 mg alisporivir (600 mg) 1×/day for 47 weeks.
Pegylated interferon alfa 2a: 180 μg subcutaneously (s.c.) once weekly for 48 weeks
Ribavirin: 1000 mg/day (<75 kg) or 1200 mg/day (≧75 kg) orally in two divided doses for 48 weeks
Primary efficacy endpoint: proportion of patients achieving SVR 24 (HCV RNA<10 IU/mL at maximum 24 weeks after treatment end).
Genotyping of IL-28B by was carried out using the MALDI-TOF MS (matrix-assisted laser desorption/ionization time-of-flight mass spectrometer) technique which has emerged as a widely applicable method in molecular biology for fast and highly accurate DNA analysis. […]
Frequency of genetic polymorphisms of IL28B was calculated by treatment arm. […]

## C/C=C/C[C@@H](C)[C@@H](O)[C@H]1C(=O)N[C@@H](CC)C(=O)N(C)[C@H](C)C(=O)N(CC)[C@@H](C(C)C)C(=O)N[C@@H](C(C)C)C(=O)N(C)[C@@H](CC(C)C)C(=O)N[C@@H](C)C(=O)N[C@H](C)C(=O)N(C)[C@@H](CC(C)C)C(=O)N(C)[C@@H](CC(C)C)C(=O)N(C)[C@@H](C(C)C)C(=O)N1C [alisporivir, Alisporivir]
Patient with IL28B nonC/C genotype
  treatment results of chronic Hepatitis C virus genotype 1 infection: particularly satisfactory treatment results
Patients with IL28B C/C genotype
  treatment of HCV: can also be used effectively
